Literature values in patent publication US20230027192A1, “METHODS OF USING SOLUBLE SOLID DISPERSIONS OF RIFAXIMIN” (United States Government as Represented by the Department …, priority 2019, published 2023).

Assays:
[1] = test system: secondary/primary bile acid ratio; settings: patients with compensated cirrhosis
[2] = test system: hepatic encephalopathy (HE); settings: in cirrhosis

CO[C@H]1/C=C/O[C@@]2(C)Oc3c(C)c(O)c4c(O)c(c5c(nc6cc(C)ccn65)c4c3C2=O)NC(=O)/C(C)=C\C=C\[C@H](C)[C@H](O)[C@@H](C)[C@@H](O)[C@@H](C)[C@H](OC(C)=O)[C@@H]1C [rifaximin]
secondary/primary bile acid ratio [1]: reduction
risk of HE recurrence and HE-related hospitalizations [2]: reduces the risk
